A word on the IC50: it is the concentration needed to halve the response being measured.

SMILES strings stand for the structures. Like-named read-outs stand apart in the source and are kept apart here.

For this experiment, the target named is T1, Human ATX protein (Homo sapiens, UniProt Q13822).
T1 construct: made in house
The experiment is described as follows: ATX biochemical FRET assay with FS-3 substrate. To be noted: ATX 1.0 μg/mL, 30 minutes pre-incubation, 2 hours at room temperature. The source says: ATX (Autotaxin) is a 125 KDa glycoprotein with lysophospholipase D (LPLD) activity that generates the bioactive lipid lysophosphatidic acid (LPA) from lysophosphatidylcholine (LPC). The ATX biochemical assay utilizes a FRET (fluorescence resonance energy transfer) technology platform. The fluorescence signal of FRET substrate FS-3 is quenched due to intra-molecular FRET of a fluorophore to a non-fluorescing quencher (Ferguson, C. G., et al., Org Lett. 2006 May 11; 8(10): 2023-2026, which is incorporated by reference in its entirety). ATX catalyzes the hydrolysis of the substrate which separates the dabsyl quencher from the fluorescein reporter, which becomes fluorescent. The reaction is monitored by a SpectraMax M5 (Molecular Devices, Sunnyvale, Calif.) with at excitation wavelength 485 nm and emission wavelength […].
Fatty acid free-BSA (Sigma A8806): 10 mg/mL in H2O, stored at 4° C.
2×ATX assay buffer: 100 mM Tris, 280 mM NaCl, 10 mM KCl, 2 mM CaCl2, 2 mM MgCl2, pH 7.4.
Human ATX protein: expressed and purified in house. Stored at −80° C.
Substrate FS-3 (Echelon, L-2000): 100 μg in 77.74 μL H2O (1 mM stock), stored at −20° C.
384-well flat bottom plates—Corning #3575.
Compound dilution—All compounds were provided at 10 mM in 100% DMSO. In the first well, 2 μL of 10 mM compound was added to 78 μL of DMSO (1:40 dilution). In subsequent wells 3-fold dilution (total 10 dilutions) were performed.
1×ATX assay buffer was made up with a final concentration of 1 mg/mL fatty acid free-BSA using 2×ATX assay buffer, 10 mg/ml fatty acid free-BSA and ddH2O.
ATX protein was diluted with 1×ATX assay buffer to a concentration of 1.32 μg/mL (1.32×). 38 μL was added per well to the assay plate. The final concentration of ATX in the reaction as 1.0 μg/mL.
2 μL per well of compounds was transferred to provide the desired concentration. The plate was centrifuged, then incubated at room temperature for 30 minutes on the shaker.
Then, 10 μL was added per well to the assay plate. […] The plate was centrifuged. The plate was kept shaking at room temperature for 2 hours. Because FS-3 substrate is light sensitive, plates were kept covered and protected from light.
Fluorescence was measured using SpectraMax M5 (excitation at 485 nm/emission at 538 nm, top read).

Where [1] appears, read: FRET substrate FS-3 2 μM, read-out: IC50.

On to `CCC(c1ccc2ccc(O[C@H]3CC[C@@H](C)CC3)c(C(F)(F)F)c2c1)N1C2CCC1CC(C(=O)O)C2` (relative stereo) [Example 18, 8-(1-(7-((cis-4-methylcyclohexyl)oxy)-8-(trifluoromethyl)naphthalen-2-yl)propyl)-8-azabicyclo[3.2.1]octane-3-carboxylic acid], for which the IC50 (IC50, FRET substrate FS-3 2 μM) is at most 250 nM. In the case of `O=C(O)C1CC2CCC(C1)N2C(=O)c1ccc2ccc(O[C@H]3CC[C@@H](C(F)(F)F)CC3)c(C(F)(F)F)c2c1` (relative stereo) [Example 23, 8-(8-(trifluoromethyl)-7-((cis-4-(trifluoromethyl)cyclohexyl)oxy)-2-naphthoyl)-8-azabicyclo[3.2.1]octane-3-carboxylic acid], the IC50 (IC50, FRET substrate FS-3 2 μM) was at most 250 nM. Where the note is “IC50, FRET substrate FS-3 2 μM”, `C[C@H]1CC[C@@H](Oc2ccc3ccc(C(=O)N4C5CCC4CC(C(=O)O)C5)cc3c2C(F)(F)F)CC1` (relative stereo) [Example 24, 8-[7-(cis-4-methyl-cyclohexyloxy)-8-trifluoromethyl-naphthalene-2-carbonyl]-8-azabicyclo[3.2.1]octane-3-carboxylic acid] yielded an IC50 of at most 250 nM. Turning to `CC[C@H]1CC[C@@H](Oc2ccc3ccc(CN4C5CCCC4CC(C(=O)O)C5)cc3c2Cl)CC1` (relative stereo) [Example 49, 9-((8-chloro-7-((cis-4-ethylcyclohexyl)oxy)naphthalen-2-yl)methyl)-9-azabicyclo[3.3.1]nonane-3-carboxylic acid], where the note is “IC50, FRET substrate FS-3 2 μM”, the IC50 is at most 100 nM. Regarding `CC(N[C@H]1C[C@@H](C(=O)O)C1(C)C)c1ccc2ccc(O[C@H]3CC[C@@H](C)CC3)c(Cl)c2c1` (relative stereo) [Example 93, Cis-3-((1-(8-chloro-7-((cis-4-methylcyclohexyl)oxy)naphthalen-2-yl)ethyl)amino)-2,2-dimethylcyclobutanecarboxylic acid], the IC50 under setting [1] is at most 250 nM. On the same count and under the same terms, next, `CC1(C)[C@@H](NCc2ccc3ccc(O[C@H]4CC[C@@H](C)CC4)c(C#N)c3c2)C[C@H]1C(=O)O` (relative stereo) [Example 99, Cis-3-(((8-cyano-7-((cis-4-methylcyclohexyl)oxy)naphthalen-2-yl)methyl)amino)-2,2-dimethylcyclobutanecarboxylic acid]: at most 250 nM. Compound `C[C@H](c1ccc2ccc(O[C@H]3CC[C@@H](C)CC3)c(C(F)(F)F)c2c1)N1C2CCCC1CC(C(=O)O)C2` (single isomer, unassigned) [Example 5b] showed an IC50 (IC50, FRET substrate FS-3 2 μM) of at most 100 nM.

The compound `C[C@H]1CC[C@@H](Oc2ccc3ccc(CN4C5CCCC4CC(C(=O)O)C5)cc3c2C(F)(F)F)CC1` (stereo partly drawn) [Example 2, 9-[7-(cis-4-methyl-cyclohexyloxy)-8-trifluoromethyl-naphthalen-2-ylmethyl]-9-aza-bicyclo[3.3.1]nonane-3-carboxylic acid] registered an IC50 (IC50, FRET substrate FS-3 2 μM) of at most 100 nM. Take `C[C@H]1CC[C@@H](Oc2ccc3ccc(CN4C5CCC4CC(C(=O)O)C5)cc3c2C(F)(F)F)CC1` (stereo partly drawn) [Example 3, 8-[7-(cis-4-methyl-cyclohexyloxy)-8-trifluoromethyl-naphthalen-2-ylmethyl]-8-aza-bicyclo[3.2.1]octane-3-carboxylic acid]: under “IC50, FRET substrate FS-3 2 μM”, the IC50 was at most 100 nM.

For the compound `CC(c1ccc2ccc(O[C@H]3CC[C@@H](C)CC3)c(C(F)(F)F)c2c1)N1C2CCCC1CC(C(=O)O)C2` (stereo partly drawn) [Example 5, 9-{1-[7-(cis-4-methyl-cyclohexyloxy)-8-trifluoromethyl-naphthalen-2-yl]-ethyl}-9-aza-bicyclo[3.3.1]nonane-3-carboxylic acid], where the note is “IC50, FRET substrate FS-3 2 μM”, the IC50 was at most 100 nM.

As for `O=C(O)C[C@H]1CCCN(Cc2ccc3ccc(O[C@H]4CC[C@@H](C(F)(F)F)CC4)c(C(F)(F)F)c3c2)C1` [Example 7, 2-((R)-1-((8-(trifluoromethyl)-7-((cis-4-(trifluoromethyl)cyclohexyl)oxy)naphthalen-2-yl)methyl)piperidin-3-yl)acetic acid], under setting [1], the IC50 is at most 100 nM.

Turning to `CC1(C)C(NCc2ccc3ccc(O[C@H]4CC[C@@H](C(F)(F)F)CC4)c(C(F)(F)F)c3c2)CC1C(=O)O` (stereo partly drawn) [Example 8, 2,2-dimethyl-3-(((8-(trifluoromethyl)-7-((cis-4-(trifluoromethyl)cyclohexyl)oxy)-naphthalen-2-yl)methyl)amino)cyclobutanecarboxylic acid], under setting [1], the IC50 is at most 250 nM. As for `CC(c1ccc2ccc(O[C@H]3CC[C@@H](C(F)(F)F)CC3)c(C(F)(F)F)c2c1)N1C2CCCC1CC(C(=O)O)C2` (stereo partly drawn) [Example 10, 9-{1-[7-(cis-4-trifluoromethyl-cyclohexyloxy)-8-trifluoromethyl-naphthalen-2-yl]-ethyl}-9-aza-bicyclo[3.3.1]nonane-3-carboxylic acid], the IC50 (IC50, FRET substrate FS-3 2 μM) is at most 100 nM. `CC(c1ccc2ccc(O[C@H]3CC[C@@H](C(F)(F)F)CC3)c(C(F)(F)F)c2c1)N1C2CCC1CC(C(=O)O)C2` (stereo partly drawn) [Example 12, 8-{1-[7-(cis-4-trifluoromethyl-cyclohexyloxy)-8-trifluoromethyl-naphthalen-2-yl]-ethyl}-8-aza-bicyclo[3.2.1]octane-3-carboxylic acid] had a 50% inhibitory concentration (IC50) (IC50, FRET substrate FS-3 2 μM) of at most 100 nM. Same read-out and setting: next, `C[C@@H](c1ccc2ccc(O[C@H]3CC[C@@H](C(F)(F)F)CC3)c(C(F)(F)F)c2c1)N1C2CCC1CC(C(=O)O)C2` (stereo partly drawn) [Example 12a, 8-{(S)-1-[7-(cis-4-trifluoromethyl-cyclohexyloxy)-8-trifluoromethyl-naphthalen-2-yl]-ethyl}-8-aza-bicyclo[3.2.1]octane-3-carboxylic acid]: at most 500 nM. For the setting “IC50, FRET substrate FS-3 2 μM”, `C[C@H](c1ccc2ccc(O[C@H]3CC[C@@H](C(F)(F)F)CC3)c(C(F)(F)F)c2c1)N1C2CCC1CC(C(=O)O)C2` (stereo partly drawn) [Example 12b, 8-{(R)-1-[7-(cis-4-trifluoromethyl-cyclohexyloxy)-8-trifluoromethyl-naphthalen-2-yl]-ethyl}-8-aza-bicyclo[3.2.1]octane-3-carboxylic acid] displayed an IC50 of at most 100 nM. In the case of `C[C@H]1CC[C@@H](Oc2ccc3ccc(C(=O)N4C5CCCC4CC(C(=O)O)C5)cc3c2C(F)(F)F)CC1` (some centres unmarked) [Example 13, 9-[7-(4-methyl-cyclohexyloxy)-8-trifluoromethyl-naphthalene-2-carbonyl]-9-aza-bicyclo [3.3.1]nonane-3-carboxylic acid], under “IC50, FRET substrate FS-3 2 μM”, the IC50 is at most 500 nM.

For `O=C(O)C1CC2CCCC(C1)N2C(=O)c1ccc2ccc(O[C@H]3CC[C@@H](C(F)(F)F)CC3)c(C(F)(F)F)c2c1` (some centres unmarked) [Example 14, 9-[8-trifluoromethyl-7-(4-trifluoromethyl-cyclohexyloxy)-naphthalene-2-carbonyl]-9-aza-bicyclo[3.3.1]nonane-3-carboxylic acid], for the setting “IC50, FRET substrate FS-3 2 μM”, the IC50 is at most 100 nM. For the setting “IC50, FRET substrate FS-3 2 μM”, `C[C@H]1CC[C@@H](Oc2ccc3ccc(CN4C5CCCC4CC(C(=O)O)C5)cc3c2Cl)CC1` (some centres unmarked) [Example 15, 9-[8-Chloro-7-(4-methyl-cyclohexyloxy)-naphthalen-2-ylmethyl]-9-aza-bicyclo[3.3.1]nonane-3-carboxylic acid] registered an IC50 of at most 100 nM. Turning to `CC(c1ccc2ccc(O[C@H]3CC[C@@H](C(F)(F)F)CC3)c(C(F)(F)F)c2c1)N1CCC[C@H](CC(=O)O)C1` (stereo partly drawn) [Example 21, ((R)-1-{1-[8-trifluoromethyl-7-(4-trifluoromethyl-cyclohexyloxy)-naphthalen-2-yl]-ethyl}-piperidin-3-yl)-acetic acid], the IC50 under setting [1] was at most 250 nM. Compound `O=C(O)C1CC2CCC(C1)N2Cc1ccc2ccc(O[C@H]3CC[C@@H](C(F)(F)F)CC3)c(Cl)c2c1` (stereo partly drawn) [Example 26, 8-((8-chloro-7-((cis-4-(trifluoromethyl)cyclohexyl)oxy)naphthalen-2-yl)methyl)-8-azabicyclo[3.2.1]octane-3-carboxylic acid] displayed a 50% inhibitory concentration (IC50) (IC50, FRET substrate FS-3 2 μM) of at most 250 nM.

Regarding `O=C(O)C1CC2CCCC(C1)N2Cc1ccc2ccc(O[C@H]3CC[C@@H](C(F)(F)F)CC3)c(Cl)c2c1` (stereo partly drawn) [Example 27, 9-((8-chloro-7-((cis-4-(trifluoromethyl)cyclohexyl)oxy)naphthalen-2-yl)methyl)-9-azabicyclo[3.3.1]nonane-3-carboxylic acid], the IC50 (IC50, FRET substrate FS-3 2 μM) is at most 100 nM. `CC(c1ccc2ccc(O[C@H]3CC[C@@H](C(F)(F)F)CC3)c(Cl)c2c1)N1C2CCC1CC(C(=O)O)C2` (stereo partly drawn) [Example 29, 8-(1-(8-chloro-7-((cis-4-(trifluoromethyl)cyclohexyl)oxy)naphthalen-2-yl)ethyl)-8-azabicyclo[3.2.1]octane-3-carboxylic acid] registered an IC50 (IC50, FRET substrate FS-3 2 μM) of at most 250 nM.

Values taken from patent publication US10017506B2, “ATX modulating agents” (BIOGEN MA INC., priority 2012, dated 2018).
